{TEG} = triethylene glycol 5' moiety of the PMO, as defined in the publication
Assays:
B. cenocepacia J2315 = assay: MBEC peg biofilm assay, crystal violet and confocal microscopy; assay type: cell-based; details: 10 μM
Description: B. cenocepacia J2315 was grown utilizing MBEC biofilm assay plates for 48 hours in the presence of either acpP PPMO (10 μM), scrambled PPMO (10 μM), peptide or media alone. Biofilm production was measure utilizing a crystal violet method.
The pegs were moved to fresh media containing either nothing, the Scrambled (Scr) control PPMO at 10 μM concentration, or the acpP PPMO at 10 μM concentration. The MBEC pegs were incubated for another 48 hours and then stained with fluorescent green peanut-agglutinin stain for the biofilm and imaged on confocal microscopy.
The formation of biofilm is a significant virulence trait and is utilized by both P. aeruginosa and the Bcc. Bcc biofilms were grown and PPMOs were tested for their ability to both prevent biofilm formation and to deconstruct existing biofilms. B. cenocepacia J2315 (a genome sequenced, epidemic CF isolate) was grown utilizing MBEC biofilm assay plates which contain a peg that grows reproducible biofilms from day to day. J2315 was grown for 48 hours in the presence of either acpP PPMO (10 μM), scrambled PPMO (10 μM), peptide or media alone (FIG. 13). The acpP-targeted PPMO (PPMO #19) has the following sequence: CCATTACCCCT (SEQ ID NO: 27). The PPMO was conjugated at its 5′ end to the beta-alanine residue of (RFF)3RXB (SEQ ID NO: 41). Biofilm production was measured utilizing a crystal violet method. […]

B. cenocepacia K56-2 [1] = assay: 24 hour growth with acpP PPMOs (bactericidal test); assay type: cell-based; details: 16 μM, FIG. 11 Panel A
Description: (§1) Two different isolates of B. cenocepacia were incubated for 24 hours in the presence or absence of different acpP PPMOs. All three acpP PPMOs caused a significant reduction of growth in the clinical CF isolate B. cenocepacia K56-2 (Panel A) and this effect was also seen for the pan-resistant strain B. cenocepacia H14277 (Panel B).
(§2) Many members of the Bcc are intrinsically antibiotic resistant making treatment difficult. B. cenocepacia is one of the most common species encountered by cystic fibrosis (CF) patients. Two different isolates of B. cenocepacia were incubated for 24 hours in the presence or absence of different acpP PPMOs (FIG. 11).

39 Bcc clinical isolates = assay: PPMO MIC against a panel of 39 Bcc clinical isolates; assay type: cell-based, Burkholderia cepacia complex; details: panel of 39 isolates; FIG. 10
Description: A variety of Bcc isolates were tested, including clinical isolates obtained from various body sites with varying levels of antibiotic resistance. The strain bank included 39 isolates that comprised the most frequently encountered species that have been reported to cause human disease. […] All 6 of these PPMOs targeted AcpP (an acyl carrier protein associated with fatty acid biosynthesis). Differences in the 6 PPMOs related to alternative positioning sites on the target mRNA.

B. cenocepacia H14277 = assay: PPMO MIC, pan-resistant strain (FIG. 10); assay type: cell-based
Description: In B. cenocepacia K56-2 (a genome-sequenced clinical CF isolate; Panel A) all three PPMOs caused a significant reduction of growth with one PPMO (PPMO #19; SEQ ID NO: 27; 16 μM) causing>3-log reduction of growth compared to the starting inoculum, a strong bactericidal effect. Importantly, this effect was seen even in pan-resistant strains of B. cenocepacia (HI4277, a pan-resistant outbreak isolate from CF patients; FIG. 11, Panel B). […] The MIC of PPMO #19 was 8 μM in H14277 (FIG. 10), illustrating that PPMOs' ability to inhibit growth is not dependent on the underlying level of antibiotic resistance in any particular strain, an important finding with positive implications for this approach.

B. cenocepacia HI4277 = assay: 24 hour growth with acpP PPMOs (bactericidal test), pan-resistant strain; assay type: cell-based; details: FIG. 11 Panel B
Description: as §1, §2

[2] = system: adeA-expressing Acinetobacter baumanii; assay: MIC of gentamicin, tobramycin and tetracycline with added adeA-targeted PPMO (CLSI microdilution); assay type: cell-based; details: concentration dependent
B. multivorans = assay: Aerosol PPMO in pulmonary infection model, lung burden; assay type: in vivo; details: single 300 μg aerosol dose 6 hours post-infection; CGD mice; 24 hours after infection
Description: Chronic granulomatous disease (CGD) mice were used as a Bcc infection model. An Aerogen nebulizer was used to deliver either scrambled (Scr) PPMO ([…]) or acpP PPMO (PPMO #15, Table 2C, 300 μg or 30 μg) as a one-time dose 6 hours post-infection. Mice were euthanized 24 hours after infection and lung burden was determined as CFU/g.
Delivering PPMOs directly to the lung in the setting of chronic pulmonary infections would be useful. Chronic granulomatous disease (CGD) mice were used as a Bcc infection model. These mice develop significant morbidity and mortality when infected with various Bcc strains. Mice were infected intranasally with a clinical B. multivorans isolate (FIG. 15). An Aerogen nebulizer was used to deliver either scrambled (Scr) PPMO (300 μg) or acpP PPMO (PPMO #15, 300 μg or 30 μg) as a one-time dose 6 hours post-infection. The acpP-targeted PPMO has the following sequence: GTCCATTACCC (SEQ ID NO: 25). The PPMO was conjugated at its 5′ end to the C-terminal β-alanine residue of (RFF)3RXB (SEQ ID NO: 41). Mice were euthanized 24 hours after infection and lung burden was determined. The single 300 μg dose of the acpP PPMO reduced the lung burden by 93% and was a statistically significant decrease. Aerosol delivery of PPMOs is a viable therapeutic strategy and importantly, this is the first time that nebulized delivery of Bcc PPMOs has been attempted.

B. cenocepacia K56-2 [3] = assay: Bcc growth in artificial CF sputum; assay type: cell-based
Description: B. cenocepacia K56-2 was incubated alone or in the presence of either a scrambled sequence (Scr) placebo PPMO or acpP PPMO (PPMO #15, Table 2C) at 10 μM or 20 μM concentration. Media or PPMO was dosed at 2, 8 and 12 hours. Samples were plated at 24 hours and CFU/ml was determined.
PPMOs were tested to determine whether they retained their activity in sputum. Using a well-described method for making “artificial CF sputum,” experiments were conducted to see whether a PPMO could reduce the burden of Bcc in this environment (FIG. 12). B. cenocepacia K56-2 was incubated alone or in the presence of either a scrambled-sequence (Scr) placebo PPMO or acpP PPMO (PPMO #15). The acpP-targeted PPMO has the following sequence: GTCCATTACCC (PPMO #15; SEQ ID NO: 25). The PPMO was conjugated at its 5′ end to the C-terminal β-alanine residue of (RFF)3RXB (SEQ ID NO: 41). Media or PPMO was dosed at 2, 8 and 12 hours. Samples were plated at 24 hours and CFU/ml was determined. The acpP PPMO was able to reduce the organism burden (both at 10 and 20 μM dosing). At 10 μM dosing, there was an approximately 2-log reduction in CFU/ml by 24-hours compared to no treatment control. At 20 μM dosing, there was a >3-log reduction seen. This reduction was apparent as early as 8 hours in the 20 μM group and 12 hours in the 10 μM group. These experiments indicate that PPMOs remain active even in the thick viscous sputum that is seen in CF patients. This is the first time that activity of PPMOs has been tested in sputum.

Klebsiella pneuomoniae = assay: MIC of meropenem with added NDM-1-targeted PPMO; assay type: cell-based; details: without PPMO, data not shown

PPMO #19: acpP-targeted PMO CCATTACCCCT (SEQ ID NO: 27); 5′ (RFF)3RXB- peptide; 3′ H (all phosphorodiamidate morpholino (PMO); 5' end conjugated to (RFF)3RXB peptide via beta-alanine, further chemistry not fully specified)
reduced biofilm formation compared to controls (B. cenocepacia J2315; 48 hours, crystal violet, FIG. 13): > 50% | amount of existing biofilm present (B. cenocepacia J2315; 48 h biofilm then 48 hours more, confocal microscopy and crystal violet, FIG. 14C): significantly reduced | reduction of growth compared to the starting inoculum (B. cenocepacia K56-2 [1]): > 3 log | IC75 (39 Bcc clinical isolates): 4 µM | MIC (B. cenocepacia H14277): 8 µM | bactericidal effect (B. cenocepacia HI4277): bactericidal

PPMO #5: adeA-targeted PMO ATA CTG TCC AA (SEQ ID NO: 15); 5′ TEG; 3′ (RXR)4XB- peptide (antisense ATACTGTCCAA; all phosphorodiamidate morpholino (PMO), 5' {TEG}; 3' end conjugated to (RXR)4XB peptide via beta-alanine)
MIC of gentamicin ([2]; FIG. 2): significantly reduced | MIC of tobramycin ([2]; FIG. 3): significantly reduced | MIC of tetracycline ([2]; FIG. 4): significantly reduced

PPMO #15: acpP-targeted PMO GTCCATTACCC (SEQ ID NO: 25); 5′ (RFF)3RXB- peptide; 3′ H (all phosphorodiamidate morpholino (PMO); 5' end conjugated to (RFF)3RXB peptide via beta-alanine, further chemistry not fully specified)
reduced the lung burden (B. multivorans): 93% | reduction in CFU/ml compared to no treatment control (B. cenocepacia K56-2 [3]; 10 μM dosing at 2, 8 and 12 hours, by 24-hours): approximately 2 log | time at which the reduction was apparent (B. cenocepacia K56-2 [3]; 10 μM group): 12 h | reduction in CFU/ml compared to no treatment control (B. cenocepacia K56-2 [3]; 20 μM dosing at 2, 8 and 12 hours, 24 hours): > 3 log | time at which the reduction was apparent (B. cenocepacia K56-2 [3]; 20 μM group): 8 h

C[C@@H](O)[C@H]1C(=O)N2C(C(=O)O)=C(S[C@@H]3CN[C@H](C(=O)N(C)C)C3)[C@H](C)[C@H]12 [meropenem]
MIC (Klebsiella pneuomoniae): ~64 µM
